Experimental data reported in patent US12590099B2, “Inhibitors of histone deacetylase useful for the treatment or prevention of HIV infection” (Merck Sharp & Dohme LLC, priority 2018, dated 2026).
Like-named read-outs stand apart in the source and are kept apart here.

Columns and labels:
KARN cells (Jurkat 2C4) = assay: cells; assay type: cell-based; details: Homo sapiens, Jurkat
How it was run: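 Luminescence (Steady-Glo, 10 min, room temperature) measured next day in KARN Jurkat 2C4 cells given compounds at up to 40 μM final with 0.4% DMSO. Percent activation normalised to DMSO (0%) and 2 μM SAHA (100%), fitted by 4-parameter curve.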

Recombinant human HDAC2 = target: T1, Recombinant human HDAC2 (Homo sapiens, UniProt Q92769); assay: Human HDAC enzyme inhibitor Fluor-de-Lys assay, HDAC2; assay type: biochemical
T1 construct: Full length human HDAC2-FLAG was expressed in baculovirus infected Sf9 cells; FLAG (C); made in house; host or cells: Sf9 (baculovirus)
T1 sequence (Q92769 whole entry): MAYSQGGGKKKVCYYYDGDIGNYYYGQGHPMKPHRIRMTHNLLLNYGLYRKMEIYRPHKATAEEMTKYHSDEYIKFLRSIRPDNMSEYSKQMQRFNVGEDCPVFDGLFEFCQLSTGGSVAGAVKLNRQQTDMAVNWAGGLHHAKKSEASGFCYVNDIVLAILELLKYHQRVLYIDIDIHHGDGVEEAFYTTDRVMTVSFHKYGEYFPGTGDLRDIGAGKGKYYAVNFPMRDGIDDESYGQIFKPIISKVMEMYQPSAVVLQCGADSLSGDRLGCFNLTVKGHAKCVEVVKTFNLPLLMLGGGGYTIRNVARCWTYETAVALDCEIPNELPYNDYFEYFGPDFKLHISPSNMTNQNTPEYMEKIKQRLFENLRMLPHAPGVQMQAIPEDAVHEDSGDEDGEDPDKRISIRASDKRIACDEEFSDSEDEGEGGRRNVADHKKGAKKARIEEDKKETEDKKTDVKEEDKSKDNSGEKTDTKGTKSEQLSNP
Description: Human HDAC Enzyme Inhibitor Fluor-De-Lys Assay
Recombinant human HDAC8 (BML-SE145-0100) and HDAC10 (BML-SE559-0050) enzymes, HDAC substrates BML-KI104 and BML-KI178, and HDAC developer solutions BML-KI105 and BML-KI176 were purchased from Enzo Life Sciences. […] HDAC inhibitor suberoylanilide hydroxamic acid (SAHA) was obtained from Indofine and trichostatin A (TSA) was obtained from Sigma-Aldrich.
Recombinant human HDAC1, HDAC2, and HDAC3/SMRT heterodimer were prepared by Merck Research Laboratories. […] The eluted protein was then passed over an anti-HDAC1 immunoaffinity column to remove any complexes containing HDAC1. […]
The histone deacetylase activities of HDAC1, HDAC2, HDAC3, HDAC6, and HDAC8 were measured in modified FLUOR DE LYS assays in 384-well format. In this assay, HDAC enzymes are initially incubated with an ε-acetyl (or -trifluoroacetyl)-L-lysine-containing substrate with a C-terminal amide having aminomethylcoumarin as the amine component. HDACs cleave the ε-acetyl group, rendering the resulting product susceptible to AMC cleavage by trypsin. The released AMC is then detected by its fluorescence.
The HDAC3/SMRT assay employed buffer B, consisting of 20 mM HEPES, pH 8.0, 1 mM MgCl2, 50 mM NaCl, 2.7 mM KCl, 0.05% BSA, 0.005% Tween 20, and 10 μM IP4. […] The HDAC8 assay employed buffer D, consisting of 20 mM HEPES, pH 8.0, 1 mM MgCl2, 100 mM NaCl, 20 mM KCl, 0.10% n-octyl-β-D-glucoside (Anatrace) and 0.05% BSA. All steps were performed at room temperature (23° C.). The assay was performed by pre-incubating serial dilutions of test compounds with the target HDAC prior to initiation with substrate. Each compound was titrated in a 10-point dose response, using a 1:3 fold dilution scheme, with 0.15 ul of solution added by ECH0555 to the plate, followed by the addition of 20 μl of the appropriate HDAC isoform diluted in appropriate assay buffer. […] Final conditions used for each assay were: 1. HDAC 1, 0.3 nM total enzyme, 20 μM substrate BML-KI104; 2. […] HDAC 3/SMRT, 0.3 nM total enzyme, 20 μM substrate BML-KI104; 4. […] The reactions were stopped and developed by addition of 30 ul of HDAC developer solution containing a saturating level of HDAC inhibitor as follows: 1.

[1] = read-out: Karn EC50 (nM) 0.1% NHS, 0.1% normal human serum
[2] = read-out: Karn EC50 (nM) 5% NHS, 5% normal human serum

Row | SMILES | EC50 (KARN cells (Jurkat 2C4); [1]) | EC50 (KARN cells (Jurkat 2C4); [2]) | IC50 (Recombinant human HDAC2)
1 | CCC(=O)CCCCC[C@H](NC(=O)[C@H]1CC12CCN(CC)CC2)c1ncc(-c2ccc(-c3cnc(C4CC4)cn3)cc2)o1 [Compound 129, (1S)—N-[(1S)-1-{5-[4-(5-cyclopropylpyrazin-2-yl)phenyl]-1,3-oxazol-2-yl}-7-oxononyl]-6-ethyl-6-azaspiro[2.5]octane-1-carboxamide] | 828 nM | 1240 nM | 89 nM
2 | CC(O)C(=O)CCCCC[C@H](NC(=O)[C@H]1CC12CCN(C)CC2)c1nc(-c2ccc(F)cc2)c[nH]1 (stereo partly drawn) [Compound 134, (1S)—N-{(1S)-1-[4-(4-fluorophenyl)-1H-imidazol-2-yl]-8-hydroxy-7-oxononyl}-6-methyl-6-azaspiro[2.5]octane-1-carboxamide] | 2410 nM | 2190 nM | 51.6 nM
3 | CCC(=O)CCCCC[C@H](NC(=O)C1=NOC2(CCN(C)CC2)C1)c1ncc(-c2ccc3nc(C4CC4)ccc3c2)o1 [Compound 135] | 1120 nM | 1380 nM | 43.5 nM
4 | CCC(=O)CCCCC[C@H](NC(=O)C1=NOC2(CCN(C(C)C)CC2)C1)c1ncc(-c2ccc3nc(C4CC4)ccc3c2)o1 [Compound 136] | 2500 nM |  | 31.2 nM
5 | CCC(=O)CCCCC[C@H](NC(=O)[C@H]1CC12CCN(C)CC2)c1ncc(-c2ccc3c(=O)n(C)ccc3c2)o1 [Compound 137] | 434 nM | 443 nM | 17.2 nM
6 | CCC(=O)CCCCC[C@H](NC(=O)[C@H]1CC12CCN(C)CC2)c1ncc(-c2ccc3oc(=O)ccc3c2)[nH]1 [Compound 138] | 210 nM | 223 nM | 7.9 nM
7 | CCC(=O)CCCCC[C@H](NC(=O)[C@H]1CC12CCN(C)CC2)c1ncc(-c2ccc(C3CC3)nc2)[nH]1 [Compound 139] | 532 nM | 552 nM | 26.1 nM
8 | CCC(=O)CCCCC[C@H](NC(=O)[C@H]1CC12CCN(C)CC2)c1ncc(-c2ccc3ncc(Cl)cc3c2)[nH]1 [Compound 140] | 113 nM | 155 nM | 4.5 nM
9 | CCC(=O)CCCCC[C@H](NC(=O)[C@H]1CC[C@]2(CC1)OC(=O)c1ncccc12)c1ncc(-c2cc3ccccc3nc2OC)[nH]1 [Compound 141] | 146 nM | 1450 nM | 38.4 nM
10 | CCC(=O)CCCCC[C@H](NC(=O)[C@H]1CC12CCN(C)CC2)c1ncc(-c2ccc(-c3ccc(C4CC4)nc3)cc2)o1 [Compound 143] | 1240 nM | 1330 nM | 207 nM
11 | CCC(=O)CCCCC[C@H](NC(=O)C1CC2(CCN(C)CC2)C1)c1ncc(-c2ccc3nn(C)cc3c2)[nH]1 [Compound 145] | 641 nM | 746 nM | 12.6 nM
12 | CCC(=O)CCCCC[C@H](NC(=O)[C@H]1CC12CCN(C)CC2)c1ncc(-c2ccc3nc(C4CC4)sc3c2)[nH]1 [Compound 146] | 122 nM | 112 nM | 3.3 nM
13 | CCC(=O)CCCCC[C@H](NC(=O)C1CC2(C1)CN(C)C2)c1ncc(-c2ccc3nn(C)cc3c2)[nH]1 [Compound 147] | 3580 nM | 2850 nM | 10.3 nM
14 | CCC(=O)CCCCC[C@H](NC(=O)[C@H]1CC12CCN(C)CC2)c1ncc(-c2ccc3nc(CC)sc3c2)[nH]1 [Compound 149] | 92 nM | 73 nM | 3.9 nM
15 | CCC(=O)CCCCC[C@H](NC(=O)[C@H]1CC12CCN(CC)CC2)c1ncc(-c2ccc3c(=O)n(C4CC4)ccc3c2)[nH]1 [Compound 150] | 114 nM | 135 nM | 1.4 nM
16 | CCC(=O)CCCCC[C@H](NC(=O)[C@H]1CC12CCN(CC)CC2)c1ncc(-c2ccc3c(=O)n(C4CC4)ccc3c2)o1 [Compound 153] | 452 nM | 447 nM | 13.5 nM
17 | CCC(=O)CCCCC[C@H](NC(=O)C1=NOC2(CCN(C)CC2)C1)c1ncc(-c2ccc3nn(C)cc3c2)[nH]1 [Compound 154] | 518 nM | 476 nM | 19.5 nM
